The source of these data is article PMC13144739, “Global analysis of cancer cell responses to USP9X inhibition” (The EMBO Journal, 2026).

Data set [1] has as its system human dermal fibroblasts (HDF). Nature of the data set: IncuCyte live-cell imaging cell death, HDF. The settings on record: 50 µM (Appendix Fig. S4E). It counts as cell-based. The procedure: Cells were seeded at varying densities (1000–8000 cells per well) after initial optimisation in a 96-well tissue culture-treated plate (Thermo Fisher Scientific). Cells were incubated o/n, and the next day, inhibitors and controls diluted in cell media were added to the cells to a final volume of 200 μL per well. Cell death was measured using PI (Sigma-Aldrich). Cells were imaged with four images per well every 2 h for up to 96 h using the IncuCyte live-cell analysis system (S3, Sartorius). Cell proliferation data were analysed using Microsoft Excel by normalising confluence to control conditions. For cell killing readouts, the number of PI-positive cells was normalised to the control conditions for each timepoint.

For data set [2], the target named is T1, USP9X catalytic domain (Homo sapiens, UniProt Q93008).
T1 construct: His/SUMO (pOPIN-S vector) (N, cleaved yes); made in house; host or cells: E. coli BL21
T1 sequence (Q93008 1551-1970): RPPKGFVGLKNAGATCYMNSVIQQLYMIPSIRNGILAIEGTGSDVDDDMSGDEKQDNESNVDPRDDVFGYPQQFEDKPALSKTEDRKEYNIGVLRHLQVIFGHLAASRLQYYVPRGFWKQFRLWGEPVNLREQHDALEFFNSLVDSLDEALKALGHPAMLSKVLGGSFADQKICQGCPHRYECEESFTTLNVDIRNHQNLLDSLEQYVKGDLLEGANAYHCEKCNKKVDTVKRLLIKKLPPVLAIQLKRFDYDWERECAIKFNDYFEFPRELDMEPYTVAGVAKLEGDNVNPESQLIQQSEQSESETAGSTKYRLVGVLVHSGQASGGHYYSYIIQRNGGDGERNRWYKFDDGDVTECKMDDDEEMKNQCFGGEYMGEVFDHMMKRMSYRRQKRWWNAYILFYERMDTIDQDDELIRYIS
Description: K48-linked di-ubiquitin cleavage assay. It counts as biochemical. The conditions noted are these: reported USP9X inhibitors; Appendix Fig. S1B,E (diUb cleavage 150 µM, Ub-Rho). The procedure:
For inhibitor activity assays, USP9X catalytic domain (di-ubiquitin cleavage assay: 750 nM, ubiquitin-probe assays: 2.5 µM) was pre-incubated with USP9X inhibitors for 30 min at ambient temperature and subsequently mixed with di-ubiquitin (final concentration 2 µM) in assay buffer (25 mM Tris [pH 8.0], 150 mM NaCl, 10 mM DTT) at pH 8.0 or was mixed with ubiquitin-propargylamide (Ub-PA)/ubiquitin-vinyl sulfonate (Ub-VS) probes at a final concentration of 10 µM in assay buffer. For both assays, the mixture was incubated over a time course, and the reaction was stopped by mixing samples with 2× LDS sample buffer (Invitrogen) supplemented with 3% (v/v) 2-mercaptoethanol. All protein samples were run on a 4–12% Bis-Tris SDS-PAGE gradient gel (Invitrogen) for 60 min at 140 V. The gel was stained with InstantBlue® (Abcam) and imaged.

Data set [3] has as its target T1, USP9X catalytic domain. Description: Ub-Rho cleavage assay. The class given is biochemical. The conditions noted are these: Ub-Rho cleavage, recombinant USP9X catalytic domain (WT). On the procedure: The reaction was stopped through the addition of 10 mM citric acid. The assay was performed in 384-well format with a total reaction volume of 16 µL. Data was collected using the ClarioSTAR plate reader (BMG Labtech) at an emission of 535 nm. […] IC50 values presented in our study are the mean of three independent biological repeats unless indicated otherwise.

The target in data set [4] is T1, USP9X catalytic domain. Description: SPR binding assay. The procedure: Next, the sample was desalted using PD midiTrap™ G-25 (GE Healthcare) columns following the manufacturer’s instructions and was further purified by SEC, concentrated, and stored at -80 °C. Enzyme activity was tested in a ubiquitin-probe assay. SPR experiments were performed on a Biacore 8 K+ instrument (Cytiva). USP9X catalytic domain with a C-terminal AviTag™ was immobilised in 10 mM HEPES, 150 mM NaCl at pH 7.4 on a Series S Sensor Chip SA (Cytiva) by coupling. […] Running buffer was supplemented with 2% (v/v) DMSO. Multi-cycle kinetics were performed with 120 s associations and 600 s dissociations at 30 µL/min with no further regeneration. Binding constants were determined in Biacore Insight evaluation software (v5.0.18) at steady state, taking the median response over a 5-s window beginning at 10 s before the end of the association phase. Final KD values are the mean of three independent experiments.
Background: Surface plasmon resonance follows binding to a sensor surface in real time, without labels.

Turning to `CCCC(NC(=O)/C(C#N)=C/c1nc(Cl)ccc1Cl)c1ccc(OCCN2CCOCC2)cc1` (centres unmarked) [EOAI3402143], the “toxicity to HDFs” value in data set [1] is “cytotoxic”. For the same molecule, at USP9X catalytic domain [2], the “effects on the purified USP9X catalytic domain” value is “no or weak effects”.

For orientation: IC50 means the concentration that gives 50% inhibition. As a reminder, the Kd is the free concentration of one partner at which half of the binding sites on the other are occupied at equilibrium, for simple one-to-one binding. Consider `O=C(c1ccc2[nH]ccc2c1)N1CCN(S(=O)(=O)c2ccc3c(c2)OCCO3)CC1` [WEHI-680], for which, on USP9X catalytic domain [3], the IC50 came out at 4.3 µM. Also, on USP9X catalytic domain [4] (SPR, steady state, mean of three repeats, read-out: KD (steady state affinity)), the Kd was 3.51 ± 0.58 µM. Moreover, the “SPR kinetic fitting (on-rate/off-rate)” value on USP9X catalytic domain [4] (compared with the WEHI compound series / WEHI-092) was “much faster off-rate”.

Regarding `CCC[C@H](NC(=O)/C(C#N)=C/c1cccc(Br)n1)c1ccccc1` [WP1130], the “toxicity to HDFs” value in data set [1] is “cytotoxic”. Further, on USP9X catalytic domain [2], the “effects on the purified USP9X catalytic domain” value is reported as “no or weak effects”.

On to `O=S(=O)(c1ccc2c(c1)OCCO2)N1CCN(c2ccc(-c3ccccc3)nn2)CC1` [WEHI-871], for which, at USP9X catalytic domain [3], the IC50 is above 100 µM.
